Species on record: Rattus norvegicus
Assay: Concentration required for GH-releasing activity in the rat pituitary cell assay was determined in vitro
Type: functional
Details: Pituitary gland cell

EC50 [nM]	Compound
4.5	COC(=O)CS(=O)(=O)Nc1ccccc1N1CCN(C(=O)[C@@H](CCCc2ccccc2)NC(=O)C(C)(C)N)CC1
760	CC(C)(N)C(=O)N[C@H](Cc1c[nH]c2ccccc12)C(=O)N1CCN(c2ccccc2Cl)CC1
490	COc1ccccc1N1CCN(C(=O)[C@@H](Cc2c[nH]c3ccccc23)NC(=O)C(C)(C)N)CC1
150	Cc1ccccc1N1CCN(C(=O)[C@@H](Cc2c[nH]c3ccccc23)NC(=O)C(C)(C)N)CC1
210	CC(C)c1ccccc1N1CCN(C(=O)[C@@H](Cc2c[nH]c3ccccc23)NC(=O)C(C)(C)N)CC1
200	CC(C)(N)C(=O)N[C@H](CCCc1ccccc1)C(=O)N1CCN(c2ccccc2NS(=O)(=O)C(F)(F)F)CC1
2.3	CC(C)(N)C(=O)N[C@H](CCCc1ccccc1)C(=O)N1CCN(c2ccccc2NS(=O)(=O)CC(=O)O)CC1
6.3	CC(C)(N)C(=O)N[C@H](CCCc1ccccc1)C(=O)N1CCN(c2ccccc2NS(C)(=O)=O)CC1
2.8	CC(C)S(=O)(=O)Nc1ccccc1N1CCN(C(=O)[C@@H](CCCc2ccccc2)NC(=O)C(C)(C)N)CC1
100	Cc1ccccc1N1CCN(C(=O)[C@@H](CCCc2ccccc2)NC(=O)C(C)(C)N)CC1

From ChEMBL document CHEMBL1130828, “Synthesis and biological activities of phenyl piperazine-based peptidomimetic growth hormone secretagogues” (Bioorg Med Chem Lett, 1998)
